What was measured:
[1] = LC-MS/MS quantification of BAPN in plasma and brain; type: in vivo, C57BL/6 mice; settings: BAPN 2 g/L in drinking water; concentration in plasma and brain after 1, 2, 4, 8 hours
Method: Mass spectrometry. A high-performance liquid chromatography tandem mass spectrometry (LC-MS/MS) assay was developed to quantify BAPN and SR9009 in plasma and brain of C57BL/6 mice. Specifically, the blood and brain tissues were collected after 1, 2, 4, and 8 hours of the administration of BAPN (2 g/L in drinking water) or SR9009 (100 mg/kg body weight, i.p.). The plasma was generated using the standard centrifugation techniques, and the brain tissues were pulverized by cryogenic grinding with liquid nitrogen. The plasma and brain tissue samples were mixed with internal standards, deproteinized with MeOH, and processed into LC-MS/MS to test the concentration of BAPN or SR9009. The analysis was performed at the Mass Spectrometry Core in Research Resources Center of University of Illinois at Chicago.

PATZ1 and PRRX1 = assay: RT-qPCR of transcription factors in PTEN-null GBM cells; type: cell-based, human; settings: U87 and U251 cells; BAPN 200 μM
Method: (§1) Cell Culture. The GBM cell lines U87, U251, SF763, LN229, and CT2A, as well as 293T cells were cultured in Dulbecco's Modified Eagle's Medium (DMEM; Gibco, #11995-065). The mouse glioma cell line GL261 cells and SIM-A9 microglia were cultured in Dulbecco's Modified Eagle Medium-Ham's F12 medium (Gibco, #10565-018). HMC3 microglia were cultured in Eagle's Minimum Essential Medium (ATCC, #30-2003). THP-1 macrophages were cultured in RPMI 1640 medium (Gibco, #11875093). All cell lines were cultured in the indicated medium containing 10% fetal bovine serum (FBS; Fisher Scientific, #16140071) and 1:100 antibiotic-antimycotic (Gibco, #15140-122), and were purchased from the American Type Culture Collection (ATCC). Human GSCs (GSC23 and GSC7-10) and mouse GBM tumor-derived 005 GSCs and QPP7 GSCs were cultured in neural stem cell (NSC) proliferation media (Millipore, #SCM005) containing 20 ng/mL epidermal growth factor (EGF; PeproTech, #AF-100-15) and basic fibroblast growth factor (bFGF; PeproTech, #100-18B). Human GSCs were gifted by Dr. Frederick F. Lang from the Brain Tumor Center (The University of Texas MD Anderson Cancer Center). […]
Quantitative real-time PCR (RT-qPCR). […] RNA was quantified by NanoDrop spectrophotometers and then the All-In-One 5× RT MasterMix (Applied Biological Materials, #G592) was used to reverse-transcribe RNA into cDNA in T100 Thermal Cycler (Bio-Rad). […]

LOX = assay: Immunoblots for LOX in CT2A cells and 005 GSCs; type: cell-based, mouse; settings: immunoblot, SR9009 5 μM
Method: as §1, with “Center). 005 GSCs and QPP7 GSCs were provided by Dr. Samuel D. Rabkin (Massachusetts General Hospital) and Dr. Jian Hu (The University of Texas MD Anderson Cancer Center), respectively. PTEN CRISPR KO in SF763 and LN229 cells were generated.” for “Center).”

Structure (SMILES)	ability to cross the blood-brain barrier (BBB) [1]	mRNA expression of PATZ1 (PATZ1 and PRRX1)	mRNA expression of PRRX1 (PATZ1 and PRRX1)	LOX expression (LOX)
N#CCCN [BAPN, β-aminopropionitrile]	showed an ability to cross the blood-brain barrier	upregulated	upregulated	
CCOC(=O)N1CCC(CN(Cc2ccc(Cl)cc2)Cc2ccc([N+](=O)[O-])s2)C1 (stereo not shown) [SR9009]				did not affect

Reference: patent US20250186396A1, “COMPOSITIONS AND METHODS FOR THE TREATMENT OF GLIOBLASTOMA WITH A DUAL TARGETING ANTI-TUMOR COMPOSITION” (Northwestern University, priority 2023, published 2025)
